# Assay results published in patent publication US20260015436A1, “ANTIBODIES FOR CHELATED RADIONUCLIDES” (Hoffmann-La Roche Inc., priority 2018, published 2026).
# Test system: BxPC3 tumors
# Experiment: Protocol 103: efficacy of CEA-PRIT, s.c. BxPC3 tumors
# Type: in vivo, SCID mice
# Settings: result in words
# Procedure: Step 1: Administration of a BsAb (i.v. or i.p.): The BsAb used in the studies binds Pb-DOTAM with high affinity and targets the tumor e.g. via CEA.
# Step 2: Administration of CA (i.v. or i.p.): To allow efficient tumor accumulation of ^212Pb-DOTAM, circulating BsAb needs to be neutralized in the blood using a CA that blocks ^212Pb-DOTAM binding to unbound BsAb, without penetrating into the tumor and consequently blocking the pretargeted sites. The CA is administered once the BsAb has accumulated to a sufficient degree in the tumor, generally after 4-10 days. […]
# The body weight (BW) of the study animals was measured at least 3 times per week, with additional measurements as needed depending on the health status. […]
# where d indicates treatment day and 0 the baseline value. […] Tumor regression (TR) was calculated according to: […]
# This study assessed the efficacy of CEA-PRIT using the CEA-DOTAM BsAb for treatment of s.c. BxPC3 tumors in mice. The therapy was administered either as a single treatment with 10 or 30 μCi of ^212Pb-DOTAM, or in three repeated cycles for each of the two radioactivity levels. […] Biodistributions were performed after the first and second cycle to confirm ^212Pb-DOTAM targeting and clearance, and the treatment efficacy was assessed in terms of TGI, TR, and survival. […]
smiles,measurement,setting,value
NC(=O)CN1CCN(CC(N)=O)CCN(CC(N)=O)CCN(CC(N)=O)CC1.[212Pb+2] [^212Pb-DOTAM],radiation-induced toxicity / tolerability,10 μCi,safe radioactivity level
same,radiation-induced toxicity / tolerability,30 μCi,approaching the maximum tolerated activity
